From patent publication US20190374158A1, “SYSTEM AND METHOD FOR MONITORING AND CONTROLLING A STATE OF A PATIENT DURING AND AFTER ADMINISTRATION OF […]” (The General Hospital Corporation, priority 2012, published 2019)

Legend:
[1] = two-compartment pharmacokinetics model estimation, rat models; set-up: species or system rats; settings: for σ scaling factor of infusion rate: rat two-compartment model; for K12 rate constant: rat two-compartment model fit to Vijn and Sneyd BSR time courses after 10-second bolus (8 mg kg^−1 propofol, 3.5 mg kg^−1 etomidate)
From the text: In one clinical application, the control target may be to achieve and maintain a target BSR corresponding to medical coma, thereby maintaining an equilibrium effect-site concentration. To design a suitable but not overly-complex model, it may be assumed that, due to the time lag between central compartment drug infusion and effect-site concentration increase, there must be at least two compartments to accurately model the evolution of the drug concentrations. Such a simplified two-compartment model is composed of the central plasma compartment and the auxiliary effect-site compartment connected by a first-order transfer process, ignoring any other peripheral drug distribution compartments.
The pharmacokinetic model in FIG. 9A can be described by the second-order linear differential equation system: […]
for an infusion rate of ut, in units of μg/s, scaled by a factor of σ. The kinetic rate constants k12 and k21 govern the drug flow between compartments, while the rate constant k10 determines the rate of the drug's clearance from the central compartment. The slow peripheral compartment and fast peripheral compartment, common in many population models, are not included.
These estimated parameters were used to design the closed-loop controller (see below) in order to yield a critically damped system response, that is, the fastest rise times without overshoot.
For the human models, existing population pharmacokinetic models were calibrated for a 180-cm, 70-kg person. […] Since a patient may not enter a state of burst suppression the instant the effect-site concentration is nonzero, the concentration trace was shifted negatively and transformed to pt such that the patient peaked at a BSP of 0.7, and came out of burst suppression 7 minutes after the initiation of the dose. […] Anesthesiology 65: 19-27, which is incorporated herein by reference, was used to numerically evaluate the effect-site concentration during and after a 10-second bolus of […].
Matlab's Optimization Toolbox was used to optimize these four parameters of the pharmacokinetic model to minimize this mean squared error, and yield an estimate of the best-fit rate constants and scaling factor.

[2] = test system: burst suppression; settings: patient after propofol bolus induction
From the text: Typically, in the operating room, a bolus dose of an anesthetic is rapidly administered to induce general anesthesia. It is often the case that the patient enters burst suppression within seconds and might remain in that state for several minutes. Since the efficiency of the drug depends on several empirical factors, it is relevant to monitor the level of suppression that is reached and its trajectory, which may help detect any anomaly, or tune the subsequent doses or levels of anesthesia.
The EEG was recorded from a scalp electrode at the FP1 site referenced to the FZ electrode of the standard electrode configuration. […] The choice of Δ=250 corresponds to a resolution of one second as in the previous case.

[3] = test system: alpha (8-13 Hz) power
From the text: 14 patients were implanted with iEEG electrode arrays as part of standard clinical treatment for intractable epilepsy. The arrays included linear penetrating depth arrays having 6-8 electrodes, subdural grid arrays having 16-64 electrodes, and/or subdural strip arrays having 4-16 electrodes (Adtech Medical, Racine, Wis.) (FIG. 21). Surface EEG electrodes were additionally applied to six patients in a subset of the standard 10-20 EEG configuration. Electrode placement was selected by the patients' clinicians without regard to the current study. […] Recordings were obtained during electrode explant surgery that occurred after 1-3 weeks of inpatient monitoring to determine epileptogenic foci. Signal acquisition began prior to induction of general anesthesia and continued until the electrodes were disconnected for explant. EEG and iEEG signals were recorded with a sampling rate of a 2000, 500, or 250 Hz depending on settings of the hospital's clinical acquisition system. Signals were digitized with hardware amplifiers (XLTEK, Natus Medical, Inc., San Carlos, Calif.) that bandpassed between 0.3 Hz and the sampling rate, and were stored on a computer (Dell) for offline processing.
Drug protocols were selected by the patients' clinicians without regard to the current study.
Patients were delivered auditory stimuli through headphones (prerecorded words and the patient's name) approximately every 4 seconds during the task, and were instructed to respond with a button click. Responses were recorded using stimulus presentation software (Presentation, Neurobehavioral Systems, Inc., Albany, Calif., or EPrime, Psychology Software Tools, Inc., Sharpsburg, Pa.). […] This patient was excluded from group analyses of peri-LOC dynamics.
In each subject, two epochs were distinguished over the recording period. […] We used visual inspection to identify the postinduction epoch. […] Burst suppression intervals were excluded to avoid the confound of low-power suppression intervals in group analyses, which differed in total time across patients. […]

[4] = test system: dopaminergic arousal pathway; settings: cited from earlier work
[5] = test system: burst suppression; test: physostigmine effect on stable burst suppression, rat EEG; assay type: in vivo, Sprague-Dawley rat; settings: rat deeply anesthetized with 2% isoflurane
From the text: The following description is with respect to an analysis of a rat under general anesthesia-induced burst suppression The BSP is compared to the BSR in order to illustrate its benefits. For the experiments described herein, signals were first band pass filtered between 5 and 30 Hz. The filtered signals were thresholded and suppression segments less than 500 milliseconds in duration were switched to 1. The binary series was then provided as an input to the BSP algorithm.
The BSP algorithm was evaluated on a rat EEG signal recorded to test whether physostigmine, a cholinergic agonist hypothesized to increase arousal, causes the burst suppression pattern observed during deep anesthesia to switch into continuous activity (associated with increased arousal). In this experiment, it is advantageous to know whether physostigmine, and not saline (control), induces a shift from burst suppression (deep anesthesia) to a delta wave pattern (lighter anesthesia). In case it does, it is desirable characterize the temporal dynamics of that change.
A rat pre-implanted with extradural EEG electrodes was deeply anesthetized with 2% isoflurane. After stabilization of the inhaled concentration, the EEG signal, was recorded for 10 minutes prior to a saline intravenous injection (control). Six minutes later, physostigmine was injected and the recording was maintained for an additional thirty minutes. […]

[6] = rat two-compartment model fit to Vijn and Sneyd BSR time courses after 10-second bolus

CCOC(=O)c1cncn1[C@H](C)c1ccccc1 [Etomidate]
σ scaling factor of infusion rate [1]: 0.8394 | K21 rate constant [1, 6]: 0.6703 min⁻¹ | K12 rate constant [1]: 0.01547 min⁻¹

CC(C)c1cccc(C(C)C)c1O [Propofol, 2,6-di-isopropylphenol]
σ scaling factor of infusion rate [1]: 0.5885 | K10 rate constant (clearance from central compartment) [1, 6]: 4.552 min⁻¹ | K21 rate constant [1, 6]: 0.9599 min⁻¹ | K12 rate constant [1]: 0.01557 min⁻¹ | BSP reached after slow second increase [2]: around 0.7 | BSP, binary filter estimate, at minute 2 [2]: around 0.5 | BSP, binary filter estimate, decrease after minute 2 [2]: around 0.2 | BSP, smoother estimate, at minute 2 [2]: ~0.6 | BSP, smoother estimate, decrease after minute 2 [2]: ~0.1 | duration of burst suppression [2]: about 8 minutes | time after LOC to abrupt suppression of alpha power ([3]; Patient 9, occipital and temporal channels): ≤ 10 s | increase of median alpha power in the postinduction period ([3]; hippocampus, cingulate cortex, medial white matter electrodes): approximately 5 dB | change of alpha power in the postinduction period ([3]; occipital, parietal, inferotemporal cortex and primary auditory cortex): consistently decreased

COC(=O)C(c1ccccc1)C1CCCCN1 (centres unmarked) [methylphenidate]
emergence from general anesthesia ([4]; isoflurane general anesthesia): actively induces emergence from isoflurane general anesthesia | minute ventilation ([4]; plethysmography and blood gas experiments): increases minute ventilation

CNC(=O)Oc1ccc2c(c1)[C@]1(C)CCN(C)[C@@H]1N2C [physostigmine]
time out of suppression after injection [5]: around 10 minutes | BSP after injection ([5]; baseline BSP around 0.5): 0
